We go through four molecules from PMC12261233, “Photoactivatable Cyclometalated Ir(III) Compound Penetrates the Blood-Brain Barrier in 3D Spheroidal and Advanced 3D Organoid Models of Inherently Resistant and Aggressive Brain Tumors” (ACS Pharmacology & Translational Science, 2025).

What all share (type): cell-based, human
The subject of assay [1] is U87MG spheroids. Briefly: Distribution of iridium compounds in Matrigel-embedded spheroids (confocal). The conditions noted are these: 5 μM, 3 h. Here is the method: Spheroids derived from U87MG cells were encapsulated in a Matrigel matrix. The U87MG cells were incubated for 72 h under 3D conditions using ULA 96-well U-shaped plates (Corning) and cultured in DMEM-F12 ham medium supplemented with growth factors conducive to spheroid formation: 2% B27 (Thermo Fisher Scientific Inc., MA, USA), epidermal growth factor (EGF; Sigma-Aldrich, Germany, 20 ng mL^–1), fibroblast growth factor (FGF2; Sigma-Aldrich, Germany, 10 ng mL^–1), and BSA (0.15%). Following the 72-h spheroid formation phase, the samples were embedded in a Matrigel matrix and allowed to gel completely (30 min). Afterward, the spheroids were further cultured for 24 h in confocal Petri dishes (Mattek) with 3D forming medium. Subsequently, the samples were exposed to 5 μM of the tested compounds 3, 4, and 5 for 3 h. The samples were then rinsed, transferred to a fresh 3D forming medium, and visualized using a confocal microscope (Leica CM SP8 SMD, Leica, Germany). Imaging was conducted in defined Z-stacks with a 20 μm step, and fluorescence intensities were captured and analyzed using ImageJ software.

Assay [2] relates to U87MG spheroids. Briefly: Calcein AM/PPI staining of Matrigel-embedded spheroids after single-spheroid 405 nm irradiation (confocal). The conditions noted are these: for change in calcein AM/PPI ratio with blue light irradiation: 405 nm irradiated; for change in calcein AM/PPI ratio under dark conditions: versus control. Here is the method: Spheroids were treated with iridium complexes at IC50 concentrations (Table S4) for 3 h, followed by 405 nm laser irradiation for 60 s. After 24 h in a drug-free medium, spheroids were stained for analysis. Significant differences in live and dead cell counts were observed between irradiated and nonirradiated samples for Ir3 and Ir4, with morphological disruptions noted in treated spheroids, including reduced diameters and metabolically active cells concentrated in the core (Figure , panel III, inserts 2* and 4*).
Matrigel-embedded spheroids were treated for 3 h with the investigated compounds at concentrations corresponding to the IC50 determined for 3D cultures. Then, the samples were irradiated for 60 s with 405 nm laser light (1 mW) and placed in a drug-free, 3D forming medium for an additional 21 h. Then, treated and irradiated (or dark incubated controls) were stained with Hoechst 33258 (20 μg mL^–1), Calcein AM (2 μM), and PPI (8 μg mL^–1) for 2 h. Samples were sequentially imaged on a confocal microscope Leica CM SP5 (Leica, Germany), in 10 z-stack scans (20 μm each). Images were processed using ImageJ software. Fluorescence intensities were assessed for the maximal projections of the z-stacks, and the corresponding Calcein AM/PPI ratio was calculated. Hoechst dye was used to accurately define the Region of Interest (ROI) mask and analyze fluorescence intensities. Three independent experiments were carried out to ensure the reliability and reproducibility of the results. The representative images are shown.

The subject of another assay is U87MG cells. Put plainly: Antiproliferative activity, 2D monolayer, SRB assay. The settings on record: for PI (phototoxicity index) 2D: IC50 dark / IC50 420 nm irradiated; for IC50: U87MG 2D monolayer, 90 min treatment, SRB. Here is the method: The antiproliferative activity of the compounds under investigation was assessed using the Sulforhodamine B (SRB) assay on both 2D cell monolayers and 3D spheroids. For the 2D cell monolayer assay, cells were seeded in 96-well tissue culture plates at a density of 3 × 10^3 cells/well in 100 μL of culture medium. Following overnight incubation in a humidified CO2 incubator, the medium was replaced, and the cells were treated with the investigated compounds in a final volume of 200 μL/well of Earle’s Balanced Salt Solution (EBSS). The cells were then exposed to the tested compounds for 1.5 h under dark conditions (5% CO2, 37 °C) and subsequently irradiated with blue light (420 nm) for 30 min at an intensity of 58 W/m^2. After treatment, the samples were washed with Phosphate-Buffered Saline (PBS) and replenished with 200 μL of culture medium. Following an additional 70-h incubation, the cells were washed with PBS, fixed with trichloroacetic acid at 4 °C for 1 h, and stained with 0.4% SRB dye for 30 min. The stained cells were dissolved with Tris (10 mM), and the cell viability was assessed by measuring the absorbance at 570 nm using an Absorbance Reader (SPARK TECAN, SCHOELLER). […] After the 72-h spheroid formation period, the samples were treated and irradiated as described for the 2D cultures. […] The luminescence signal was detected using the plate reader SPARK (Tecan, Manedorf, Switzerland), and the IC50 values were calculated from the survival curves. All experiments were conducted in triplicate to ensure the reliability and reproducibility of the results. Furthermore, the concentrations of the compounds in the medium during the treatment were verified using Flame Atomic Absorption Spectroscopy (FAAS) or Inductively Coupled Plasma Mass Spectrometry (ICP-MS). […]
drug-free incubation. c IC50 values were determined by SRB assay. d IC50 values were determined by CellTiter-Glo® 3D chemiluminescent assay. e PI - phototoxicity index was calculated as the ratio of IC50 determined under the dark conditions / IC50 determined for 420 […]
models under irradiation conditions.
(In general: In SRB staining, fixed cells bind dye roughly in proportion to their protein.)

The mark [3] stands for this setting: dark, 70 h drug-free incubation, read-out: IC50 2D Dark.
[4] abbreviates: 30 min blue light 420 nm 58 W m-2, 70 h drug-free, read-out: IC50 2D Irradiated.

Each structure is given as a SMILES string. Like-named read-outs stand apart in the source and are kept apart here.

As to `CCCCn1c2[n+](c3cc(C(=O)OC)ccc31)[Ir-3]13([Cl])([c]4ccccc4-2)[n+]2ccccc2-c2cc(-c4ccc(C)cc4)cc([n+]21)-c1cccc[n+]13.F[P-](F)(F)(F)(F)F` [Ir4], the distribution within spheroid entry with U87MG spheroids [1] was “most uniform distribution”. In the assay with U87MG spheroids [2], the “change in calcein AM/PPI ratio with blue light irradiation” value is on record as “substantial decrease” and the “change in calcein AM/PPI ratio under dark conditions” value is given as “significant decrease”. Also, the “PI (phototoxicity index) 2D” value in the assay with U87MG cells stood at 41. Moreover, in the assay on U87MG cells (setting [3]), the IC50 (in general, the midpoint of a concentration-inhibition curve) came out at 21.3 ± 1.4 µM. Also, the IC50 in the assay on U87MG cells (setting [4]) was 0.52 ± 0.08 µM.
For `Cn1nnc2c(C(N)=O)ncn2c1=O` [Temozolomide, reference compound], in the assay with U87MG cells (Homo sapiens, U-87 MG, dark, 70 h drug-free incubation, read-out: IC50 2D Dark), the IC50 is not below 100 µM.
Take `Cc1ccc(-c2cc3[n+]4c(c2)-c2cccc[n+]2[Ir-3]42([Cl])([c]4c(ccc5c4OCO5)-c4n(Cc5ccc(C(F)(F)F)cc5)c5ccccc5[n+]42)[n+]2ccccc2-3)cc1.F[P-](F)(F)(F)(F)F` [Ir5]: the distribution within spheroid entry in the assay on U87MG spheroids [1] is reported as “primarily localized in the outer regions of the spheroids”. Besides, the “change in calcein AM/PPI ratio with blue light irradiation” value in the assay with U87MG spheroids [2] is given as “substantial decrease”. The “change in calcein AM/PPI ratio under dark conditions” value in the assay on U87MG spheroids [2] is reported as “insignificant changes”. Also, in the assay with U87MG cells, the “PI (phototoxicity index) 2D” value worked out at 60. Besides, the IC50 with U87MG cells (setting [3]) was 25.3 ± 2.1 µM; in the assay with U87MG cells (setting [4]) it was 0.42 ± 0.03 µM.
For the molecule `Cc1ccc(-c2cc3[n+]4c(c2)-c2cccc[n+]2[Ir-3]42([Cl])([c]4cc5ccccc5cc4-c4n(Cc5ccc(C(F)(F)F)cc5)c5ccccc5[n+]42)[n+]2ccccc2-3)cc1.F[P-](F)(F)(F)(F)F` [Ir3], the distribution within spheroid result in the assay with U87MG spheroids [1] was “primarily localized in the outer regions of the spheroids”. Further, in the assay with U87MG spheroids [2], the “change in calcein AM/PPI ratio with blue light irradiation” value was “substantial decrease” and the “change in calcein AM/PPI ratio under dark conditions” value is “insignificant changes”. For the same molecule, in the assay with U87MG cells, the “PI (phototoxicity index) 2D” value worked out at 45. Further, the IC50 in the assay on U87MG cells (setting [3]) came out at 30.4 ± 4.3 µM. Moreover, in the assay on U87MG cells (setting [4]), the IC50 was 0.67 ± 0.08 µM.
